Assays:
[1] = tested on: hybrid striped bass (Morone chrysops X M. saxatilis); assay: Growth and feed efficiency trial of practical diets supplemented with a non-nutritive emulsifier; type: in vivo; conditions: for FCR (feed conversion ratio) / Weight Gain (%): 28 days, initial weight 15 g; for Weight Gain (%): fed daily to satiation
Source text: The present example provides details of experiments conducted to evaluate and quantify the effects of a non-nutritive emulsifier upon the growth and feed efficiency of phase-I hybrid striped bass (Morone chrysops×M. saxatilis). Tween-80® (provided as a liquid supplement) was incorporated into practical diets formulated to meet, or exceed, the known nutrient requirements of hybrid striped bass. Diets were formulated at Southern Illinois University using MIXIT 3 WIN (Agricultural Software Consultants, Inc., San Diego) and manufactured as cold pressed pellets.
Fish were stocked at a density of 15 fish per tank. Four practical diets were formulated to meet or exceed the known dietary requirements of juvenile hybrid striped bass. Each diet was supplemented with one of four concentrations of emulsifier providing dietary treatments of 0, 0.5, 1.0, and 2.0% Tween-80®, respectively. Fish were fed daily to satiation and feed consumption was monitored weekly. After 4 weeks, all fish in each tank were weighed to determine growth. Feed consumption was used to calculate feed conversion ratio (g feed:g weight gain).

[2] = tested on: juvenile sunshine bass Morone chrysops×M. saxatilis; assay: Gastric residuum stratification trial with pelleted diets with varied levels of lecithin inclusion; type: in vivo; conditions: 2% BWD meal, 4.5 h post-prandial
Source text: Residuum appearance: Nine pellet trained sub-adult spotted bass (mean weight=150 grams) were maintained in isolation in 37.8 L glass aquariums for seven days. During days 1-5, the bass were hand-fed to satiation once daily with either a semi-purified pellet diet (See Table 2), live paper shell crayfish (Orconectes immunis), or live fathead minnows (Pimephales promelas). Three bass were given each dietary treatment. Crayfish and minnows were maintained on the same pelleted diet as the bass and fed to apparent satiation two times daily. On Day 6, food was withheld to allow complete evacuation of gastric contents. On Day 7, the bass were fed that same food as during Days 1-5, at a rate of approximately 2% of their body weight (dry weight of feed/wet weight of bass). Post-prandially (4.5 hours) the bass were dispatched with blunt trauma to the head before immersion in liquid nitrogen until frozen solid (approx. 2 mins.). The bass were stored frozen until the residuum was removed by dissection. The position of the pyloric sphincter was noted relative to the observed strata. Representative residua were photographed. Residuum strata were separated using a razor blade for determination of proximate composition.
Juvenile sunshine bass Morone chrysops×M. saxatilis (n=15) were stocked individually into 110 L tanks and acclimated for a period of five days. […]

[3] = juvenile hybrid striped bass, practical diets

Compound | FCR (feed conversion ratio) ([1]; 0.5% Tween-80 in diet) | Weight Gain (%) ([1]; 0.5% Tween-80 in diet) | FCR (feed conversion ratio) ([1]; 1.0% Tween-80 in diet) | Weight Gain (%) ([1]; 1.0% Tween-80 in diet) | FCR (feed conversion ratio) ([1]; 2.0% Tween-80 in diet) | Weight Gain (%) ([1]; 2.0% Tween-80 in diet) | feed conversion compared to fish fed a control diet void of Tween-80 [1, 3] | weight gain compared to fish fed a control diet void of Tween-80 [1, 3] | stratification of the gastric residuum ([2]; lecithin inclusion rates of 0.25, 0.50, 1.00 and 2.00% of pellet weight) | amount of post-prandial water intake into the gastric residuum ([2]; lecithin inclusion rates of 0.50, 1.00 and 2.00%)
CCCCCCCC/C=C\CCCCCCCC(=O)OCCOCC(OCCO)C1OCC(OCCO)C1OCCO (stereo not shown) [Tween-80] | 1.21 g feed:g gain | 118 | 1.16 g feed:g gain | 140 | 1.23 g feed:g gain | 125 | improved | improved |  | 
lecithin (phosphatidyl choline) |  |  |  |  |  |  |  |  | reduce stratification of the gastric residuum | reduce the amount of post-prandial water intake

— patent publication US20090041888A1, “USE OF FORMULATED DIETS PROVIDING IMPROVED DIGESTION IN FISH” (SOUTHERN ILLINOIS UNIVERSITY, priority 2005, published 2009)
